The results in this text go back to ChEMBL document CHEMBL1130732, “Homologated aza analogs of arabinose as antimycobacterial agents” (1998).

The subject of experiment [1] is Mycobacterium tuberculosis. The experiment can be described thus: Percent inhibition of compound against Mycobacterium tuberculosis H37Ra at 12.5 ug/mL concentration in BACTEC assay. In kind it is functional.
Experiment [2] relates to Mycobacterium tuberculosis. Put plainly: Minimum inhibitory concentration against Mycobacterium tuberculosis H37Ra. In kind it is functional.
For experiment [3], the system named is Mycobacterium avium. Put plainly: Anti-MAC activity against Mycobacterium avium macrophage; I means inactive in macrophages. It is filed as functional, organism-based.
Experiment [4] concerns Mycobacterium tuberculosis. Put plainly: Minimum bactericidal concentration against Mycobacterium tuberculosis H37Ra. In kind it is functional.
In experiment [5] the test system is Mycobacterium tuberculosis. Put plainly: Minimum inhibitory concentration against Mycobacterium tuberculosis H37Ra; […]. It is filed as functional.
Experiment [6] concerns Mycobacterium tuberculosis. The experiment can be described thus: Minimum bactericidal concentration against Mycobacterium tuberculosis H37Ra; value ranges from 64->128 ug/mL. In kind it is functional.
The test system of experiment [7] is Mycobacterium tuberculosis. The experiment can be described thus: Minimum inhibitory concentration against Mycobacterium tuberculosis H37Ra; value ranges from 16-64 ug/mL. It is filed as functional.
Experiment [8] has as its system Mycobacterium avium. The experiment can be described thus: Anti-MAC activity against Mycobacterium avium macrophage; cytotoxic to macrophages. In kind it is functional, organism-based.
The subject of experiment [9] is Mycobacterium tuberculosis. The experiment can be described thus: Minimum inhibitory concentration against Mycobacterium tuberculosis H37Ra; value ranges from 32-128 ug/mL. It is filed as functional.
In experiment [10] the test system is Mycobacterium tuberculosis. The experiment can be described thus: Minimum inhibitory concentration against Mycobacterium tuberculosis H37Ra; partial inhibition at 128 ug/mL. In kind it is functional.
For experiment [11], the system named is Mycobacterium tuberculosis. Put plainly: Minimum inhibitory concentration against Mycobacterium tuberculosis H37Ra; value ranges from >12.8-<=128 ug/mL. It is filed as functional.
In experiment [12] the test system is Mycobacterium tuberculosis. Put plainly: Minimum inhibitory concentration against Mycobacterium tuberculosis H37Ra; value ranges from […] ug/mL. It is filed as functional.
The test system of experiment [13] is Mycobacterium avium. The experiment can be described thus: Anti-MAC activity against Mycobacterium avium macrophage was determined. It is filed as functional.
Experiment [14] concerns Mycobacterium tuberculosis. Put plainly: Minimum inhibitory concentration against Mycobacterium tuberculosis H37Ra; value ranges from 16-32 ug/mL. It is filed as functional.

In brackets after ≈: the same amount, converted by molar mass. Activity calls are given as the source filed them. The calls are words filed in the database; no cut-off is given here.

In experiment [1], `O=S(=O)(CC1NC(CO)C(O)C1O)c1ccccc1` (stereo not given) came in with an inhibition at 12.5 µg/mL of 6%. Besides, the MIC in experiment [2] is over 128 µg/mL. Besides, the outcome in the experiment with Mycobacterium avium [3] was inactive.
Turning to `CCCCCCCCCCCC[S+]([O-])CC1NC(CO)C(O)C1O` (stereo not given), the MBC in [4] is at least 128 µg/mL. Besides, in [5], the MIC stood at 32 µg/mL (≈ 88 µM).
For `CCCCCCCCCCCCCCCCSCC1NC(CO)C(O)C1O` (stereo not given), the MBC in experiment [6] turned out to be 64 µg/mL (≈ 159 µM). Besides, the lowest concentration to inhibit growth in experiment [7] (MIC) was 16 µg/mL (≈ 39.6 µM).
Regarding `CCCCCCCCCCCCS(=O)(=O)CC1NC(CO)C(O)C1O` (stereo not given), the Activity entry in the experiment on Mycobacterium avium [8] is recorded as “Cytotoxic”. The same compound yielded an MBC in experiment [4] of at least 128 µg/mL. The MIC in [9] came out at 32 µg/mL (≈ 84.3 µM).
In experiment [1], `OCC1NC(CSc2ccncc2)C(O)C1O` (stereo not given) registered an inhibition at 12.5 µg/mL of 6%. The MIC in [2] was over 128 µg/mL.
With `CCCCCCCCCCSCC1NC(CO)C(O)C1O` (stereo not given), in experiment [4], the MBC was at least 128 µg/mL. The compound also gave an MIC in [9] of 32 µg/mL (≈ 100 µM).
In turn, `COc1ccccc1SCC1NC(CO)C(O)C1O` (stereo not given) returned an MIC in [2] of over 128 µg/mL.
Compound `[O-][S+](CC1NC(CO)C(O)C1O)c1ccccc1` (stereo not given) yielded an inhibition at 12.5 µg/mL in [1] of 18%. The compound further yielded an MIC in [2] of over 128 µg/mL. In the experiment with Mycobacterium avium [3], the outcome was inactive.
Consider `OCC1NC(CSc2ccc3ccccc3c2)C(O)C1O` (stereo not given), for which the MIC in experiment [10] was over 128 µg/mL. The compound also yielded an inhibition at 12.5 µg/mL in [1] of 18%.
As to `N#Cc1ccc(SCC2NC(CO)C(O)C2O)cc1` (stereo not given), the inhibition at 12.5 µg/mL in experiment [1] turned out to be 5%. Moreover, the MIC in experiment [2] is over 128 µg/mL.
The compound `CCCCCCCCCCCCS(=O)(=O)C[C@H]1NC(CO)C(O)C1O` (stereo not given in full) had an MIC in [11] of over 12.8 µg/mL.
As to `CC(C)=CCC/C(C)=C\CSCC1NC(CO)C(O)C1O` (stereo not given), in the experiment on Mycobacterium avium [8], the Activity result is “Cytotoxic”. The compound also showed an MIC in experiment [12] of 64 µg/mL (≈ 203 µM).
Compound `OC[C@H]1O[C@@H](CSc2ccccc2)[C@H](O)[C@@H]1O` showed an Activity in the experiment with Mycobacterium avium [13] of over 64 µg/mL. The MIC in experiment [2] was over 128 µg/mL.
Turning to `CCCCCCCCCCCCSCC1NC(CO)C(O)C1O` (stereo not given), the Activity result with Mycobacterium avium [8] was “Cytotoxic”. Besides, the minimal bactericidal concentration (MBC) in experiment [6] came out at 64 µg/mL (≈ 184 µM). Inhibition of growth in [14] (MIC) required 16 µg/mL (≈ 46 µM).
With `OCC1NC(CSc2ccccc2)C(O)C1O` (stereo not given), the inhibition at 12.5 µg/mL in experiment [1] amounted to 0%. This compound also returned an Activity in the experiment on Mycobacterium avium [13] of 4 µg/mL. Also, the MIC in experiment [2] was over 128 µg/mL.
With `OCC1NC(CSCc2ccccc2)C(O)C1O` (stereo not given), the MIC in experiment [2] was over 128 µg/mL.
On the same count and under the same terms, the figure for `COc1ccc(SCC2NC(CO)C(O)C2O)cc1` (stereo not given) is over 128 µg/mL.
